Tests used:
[1] = test system: C57BL/6J mice fed CHD or HFD; experiment: Histology and immunohistochemistry of liver and pancreas of chronically treated mice; format: in vivo, mouse; details: for islet size (immunohistochemistry) / insulin positive area: mean±SEM
Method: Tissues were drop-fixed in 4% paraformaldehyde (Sigma-Aldrich, Saint Quentin Fallavier, France) immediately after collection and put through an automated carousel processor for dehydration, clearing, and paraffin embedding (Leica, Nanterre, France). Sections were prepared for liver (6 μm), pancreas (6 μm) and adipose tissue ([…]) and mounted on slides (DPX polymerizing mountant, Sigma-Aldrich, Saint Quentin Fallavier, France). Hematoxylin and Eosin (H&E) was used to evaluate tissue morphology. Epitope-specific antibodies were used for immunohistochemistry detection of insulin on pancreas sections (Dako, Saint Aubin, France).
For Oil redO (ORO), livers were snap frozen in OCT (VWR, Fontenay-sous-Bois, France) and cut into 7-μm sections using a cryostat. Sections were rehydrated in PBS (Sigma-Aldrich, St Quentin, France) and incubated with an ORO staining solution (Sigma Aldrich, St Quentin, France). Slides were washed in deionized water and mounted with Vectashield mounting medium (Laboratoires Eurobio Abcys, LesUlis, France).
For immunohistochemistry analysis, pancreas sections were quenched with 3% H2O2, washed with TBS+0.1% (v/v) Tween-20 (or 0.05% v/v Triton X-100 for nuclear epitopes), blocked with TBS+3% (w/v) BSA and incubated with diluted primary antibodies and then with HRP-conjugated secondary antibody (Bio-Rad, Marnes-la-Coquette, France). Chromogenic detection was carried out with the DAB chromogen kit (Dako, Saint Aubin, France). Nuclei were counterstained with hematoxylin. Quantitative expression of all immunostainings was performed using positive pixels algorithm (Indica Labs, Corrales, N. Mex.). For double immunostaining and immunofluorescence analyses, pancreas sections were stained for insulin as described above and co-stained with i) primary Anti-Ki67 antibody (ab15580, Abcam, Paris, France) and secondary Donkey Anti-Goat IgG H&L conjugated to Alexa Fluor® 568 (ab175704, Abcam, Paris, France) ii) primary Mouse/Rat CD31/PECAM-1 Antibody (AF3628, Minneapolis, USA) and secondary Goat anti-Rabbit IgG H&L conjugated to Alexa Fluor 488 (A-11034, ThermoFisher, Villebon, France). Results are expressed as percentage of positive pixels, within islets where indicated. The quantification method is an automated observer-independent process based on section scanning and application of publicly available algorithms. Each biological replicate represents one slide per animal mounted with at least 3 tissue sections, representing 3 technical replicates, the mean and variance of which is presented as the result per biological replicate. All images were acquired on an Axiovert 200M microscope (Zeiss, Marly-le-Roi, France).

[2] = test system: Goto-Kakizaki (GK) rats; experiment: Pancreas histology and immunohistochemistry of chronically treated GK rats; format: in vivo, rat
Method: Pancreas sections were labeled either with Hematoxylin-Eosin and Immunohistochemistry to determine insulin positive area (FIG. 9F) and treated with Ki 67 and DAPI to stain and quantify proliferative nuclei (FIG. 9G). […] All measures are from 6 rats per group. Data were analyzed using the unpaired Mann-Whitney test. […] Tissues were drop-fixed in 4% paraformaldehyde (Sigma-Aldrich, Saint Quentin Fallavier, France) immediately after collection and put through an automated carousel processor for dehydration, clearing, and paraffin embedding (Leica, Nanterre, France). Sections were prepared for liver (6 μm), pancreas (6 μm) and adipose tissue ([…]) and mounted on slides (DPX polymerizing mountant, Sigma-Aldrich, Saint Quentin Fallavier, France). Hematoxylin and Eosin (H&E) was used to evaluate tissue morphology. Epitope-specific antibodies were used for immunohistochemistry detection of insulin on pancreas sections (Dako, Saint Aubin, France). […] Quantitative expression of all immunostainings was performed using positive pixels algorithm (Indica Labs, Corrales, N. Mex.). […] Results are expressed as percentage of positive pixels, within islets where indicated. The quantification method is an automated observer-independent process based on section scanning and application of publicly available algorithms. […]

[3] = test system: pancreas gene expression; experiment: Quantitative RT-PCR in pancreas of chronically treated GK rats; format: in vivo, rat
Method: RNA was extracted from pancreas, adipose tissue and liver using the RNeasy RNA Mini Kit (Qiagen, Courtaboeuf, France). Reverse transcription was performed from a 20 μL reaction mixture with 500 ng RNA using M-MLV reverse transcriptase kit (ThermoFisher, Villebon, France). Quantitative RT-PCR was performed using sequence specific primers and the MESA green kit for SYBR green assays (Eurogentec, Angers, France). We used 18S and/or cyclophilin house keeping genes to normalize relative quantification of mRNA levels using the Livak and […] methods ([…], 2001).

For Cc1ccc(O)cc1 [4-cresol], the “islet size (immunohistochemistry)” value ([1]; CHD fed mice) was 153.60±14.18, the “number of proliferative nuclei (KI67) in pancreas” value ([1]; CHD-fed mice) was “significantly increased” and the “reduction in liver fat content (Oil-Red-O staining)” value ([1]; HFD fed mice, P=0.009, to the level of saline-treated CHD-fed controls) was 40.7%. For the same molecule, the “islet size (immunohistochemistry)” value ([1]; HFD fed mice) was 170.00±12.56, the “number of proliferative nuclei (KI67) in pancreas” value ([1]; HFD-fed mice) was “remained elevated” and the “CD31 positive cells (pancreas vascularization)” value ([1]; both groups fed CHD or HFD) was “further significant increase”. For the same molecule, the “liver fat content (Oil-Red-O staining)” value ([1]; mice fed CHD) was “reduced”, the islet density ([1]; mice fed CHD or HFD, significant only in CHD-fed mice) was “strong increase” and the insulin positive area ([1]; mice fed CHD, statistically significant) was 185.40±22.95. The insulin positive area ([1]; mice fed HFD, not statistically significant) was 171.90±21.62, the “cell proliferation (Ki 67 labeling) in pancreas” value [2] was “increased cell proliferation” and the insulin positive area [2] was “significant increase”. The “stimulatory effects on expression of Sirt1, Ins1, Hnf1α, IL10 and Vegfa in pancreas” value ([3]; GK rats) was “replicated”, the “pancreatic expression of ERα” value ([3]; GK rats in vivo) was “does not regulate significantly” and the DYRK1A pancreatic transcription ([3]; GK rats, chronic treatment) was “significant downregulation”. For the same molecule, the “expression of genes encoding amylase, IL6 and Tnf in pancreas” value ([3]; GK rats, differences to saline not statistically significant) was “strongly altered”.
